Experimental data: US20250236617A1, “BICYCLIC TETRAHYDROTHIAZEPINE DERIVATIVES” (Hoffmann-La Roche Inc., priority 2022, published 2025)

Tests used:
[1] = tested on: MV-3 RFP cells; assay: T-cell-TCB-MV3 killing assay; type: cell-based; details: MV-3, 120 h, primary human T-cells + MCSP-TCB, 5 d; for Emax: 20 μM reference compound A1 = 100%, read-out: MSCP TCB killing MV-3 cells 5 d Emax; for EC50: read-out: MSCP TCB killing MV-3 cells 5 d EC50
Procedure: All culturing steps are executed at 5% CO2, 37° C. and 95% humidity.
MV-3 RFP cells are cultured in MV-3 medium (DMEM+10% FBS, 1× PenStrep and 0.5 μg/mL Puromycin) for at least 3 weeks. Cultured MV-3 cells at 80% confluency are washed once with PBS−− and trypsinized until detached. […] Cells are seeded with 100 μL/well into a 96-well plate (TTP, #92696), and placed for 40 minutes without moving at room temperature in order to achieve evenly distributed attachment of cells. Plates are then incubated until further use.
On the next day, expanded primary human T-cells are thawed and resuspended in T-cell medium to 4*10^6 cells/mL. For 3 hours, they are cultured in a 6-well plate with 6 mL per well at maximum. After culturing the T-cells, they are filtered through a cell strainer (Miltenyi Biotech, #130-041-407), counted again, and cell concentration is adjusted to 2*10^6 cells/mL.
MCSP-TCB or PBS are pre-diluted in T-cell medium (concentration depending on T-cell donor), 4 times more concentrated than the end-concentration. 60 μL/well of pre-dilutions are then distributed into a round bottom plate (Costar, #3799) according to plate layout. Compounds are added in a 9 pt dose response with the Tecan D300e Digital Dispenser, as well 4 times more concentrated than the end-concentration. DMSO concentration of all wells is adjusted to 0.8%, resulting in 0.2% as final concentration.
60 μL per well of T-cell suspension are added to the prepared round bottom plate and resuspended with a manual multichannel. 100 μL/well of the resuspended T-cell suspension including treatments are then transferred cautiously to the over-night cultured MV-3 cells according to plate layout. 100 μL T-cell medium only is added to the outer MV-3 wells only. Final compound DR is starting at 20 μM with a dilution factor of 3.333. Final TCB concentration is between […] and was determined for each T-cell donor individually by running TCB titrations. For each donor, a TCB concentration was chosen which corresponds to 10-20% of MV3 baseline cell killing in the absence of compound treatment. Positive control is the reference compound A1 which is added in a DR, as well as additional wells with only 20 μM. 20 μM of reference compound A1 represent the positive stimulator control, TCB only (DMSO wells) the neutral control.
After transfer of T-cells with treatment pre-dilutions, MV-3 cells are imaged by time-lapse microscopy using IncucyteZOOM™ (Essen BioScience, MI, USA). Imaging is performed every 3 hours for a total of 120 hours (10× objective, phase and red image channels, acquisition time 400 ms, Green/Red 4614 optical module). RFP object count per well is analysed in the IncucyteZOOM™ Software (Version 2019B Rev2) with a mask that was previously created and optimized for MV-3 cells. Raw data is exported as object count/well and values are normalized as % TCL compared to wells with MV-3 only, representing 100% growth and therefore 0% TCL.
Calculated % TCL values are analysed in Genedata Screener using Roche Normalization PCT_POS_CTRL with MCSP-TCB only set as Neutral Control and 20 μM of the reference compound A1 set as Stimulator Control/100%.

[2] = target: DGK ζ kinase (Homo sapiens (Human), UniProt Q13574); assay: In vitro DGK inhibition assay: ADP Glo run by Reaction Biology Corp., DGKzeta; type: biochemical; details: 2 nM enzyme, 500 uM DLG, 10-dose duplicate
DGK ζ kinase, sequence (Q13574 whole entry): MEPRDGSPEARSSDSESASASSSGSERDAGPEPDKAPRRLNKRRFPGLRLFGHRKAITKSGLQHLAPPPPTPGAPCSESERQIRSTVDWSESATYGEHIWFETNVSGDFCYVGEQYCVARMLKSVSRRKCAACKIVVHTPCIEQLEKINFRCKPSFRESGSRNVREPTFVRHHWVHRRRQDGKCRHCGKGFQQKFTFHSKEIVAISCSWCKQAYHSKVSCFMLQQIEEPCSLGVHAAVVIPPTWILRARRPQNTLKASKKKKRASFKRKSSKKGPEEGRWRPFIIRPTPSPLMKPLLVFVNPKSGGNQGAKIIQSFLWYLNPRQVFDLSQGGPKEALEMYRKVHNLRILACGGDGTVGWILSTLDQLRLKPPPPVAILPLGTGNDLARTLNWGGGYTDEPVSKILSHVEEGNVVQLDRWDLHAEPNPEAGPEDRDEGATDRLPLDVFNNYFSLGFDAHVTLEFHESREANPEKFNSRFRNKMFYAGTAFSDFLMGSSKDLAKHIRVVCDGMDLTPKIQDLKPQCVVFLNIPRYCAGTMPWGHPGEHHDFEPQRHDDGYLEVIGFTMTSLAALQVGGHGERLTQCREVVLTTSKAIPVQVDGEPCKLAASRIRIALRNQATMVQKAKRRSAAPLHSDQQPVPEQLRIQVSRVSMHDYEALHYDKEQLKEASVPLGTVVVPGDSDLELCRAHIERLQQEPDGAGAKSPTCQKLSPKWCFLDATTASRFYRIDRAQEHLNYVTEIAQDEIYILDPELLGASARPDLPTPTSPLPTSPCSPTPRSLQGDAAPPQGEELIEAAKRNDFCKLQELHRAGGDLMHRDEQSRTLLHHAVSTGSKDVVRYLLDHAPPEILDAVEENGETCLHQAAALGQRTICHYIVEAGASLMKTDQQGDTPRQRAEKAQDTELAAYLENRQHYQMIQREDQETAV
Procedure: (§1) DGK α and ζ kinases use ATP to phosphorylate the substrate 1,2-dilauroyl-sn-glycerol (DLG). ATP is converted to ADP as a result of this enzymatic reaction.
(§2) After the kinase reaction, an ATP-depletion reagent is added to terminate the kinase reaction and deplete any remaining ATP, leaving only ADP. Second, a detection reagent is added to simultaneously convert ADP to ATP and allow the newly synthesized ATP to be converted to light using a coupled luciferase/luciferin reaction.
(§3) DGK α and ζ kinase ADP Glo assays were ran by Reaction Biology Corp., 1 Great Valley Parkway, Suite 2, Malvern, 19355, PA, USA. Information provided by the service provider are the following: DGK α and ζ kinases were used at 2 nM final concentration. Reactions were carried out at 50 µM ATP. 500 uM of the substrate DLG (Dilauroyl-sn-glycerol) was used.

[3] = target: DGK α kinase (Homo sapiens (Human), UniProt P23743); assay: In vitro DGK inhibition assay: ADP Glo run by Reaction Biology Corp., DGKalpha; type: biochemical; details: 2 nM enzyme, 500 uM DLG, 10-dose duplicate
DGK α kinase, sequence (P23743 whole entry): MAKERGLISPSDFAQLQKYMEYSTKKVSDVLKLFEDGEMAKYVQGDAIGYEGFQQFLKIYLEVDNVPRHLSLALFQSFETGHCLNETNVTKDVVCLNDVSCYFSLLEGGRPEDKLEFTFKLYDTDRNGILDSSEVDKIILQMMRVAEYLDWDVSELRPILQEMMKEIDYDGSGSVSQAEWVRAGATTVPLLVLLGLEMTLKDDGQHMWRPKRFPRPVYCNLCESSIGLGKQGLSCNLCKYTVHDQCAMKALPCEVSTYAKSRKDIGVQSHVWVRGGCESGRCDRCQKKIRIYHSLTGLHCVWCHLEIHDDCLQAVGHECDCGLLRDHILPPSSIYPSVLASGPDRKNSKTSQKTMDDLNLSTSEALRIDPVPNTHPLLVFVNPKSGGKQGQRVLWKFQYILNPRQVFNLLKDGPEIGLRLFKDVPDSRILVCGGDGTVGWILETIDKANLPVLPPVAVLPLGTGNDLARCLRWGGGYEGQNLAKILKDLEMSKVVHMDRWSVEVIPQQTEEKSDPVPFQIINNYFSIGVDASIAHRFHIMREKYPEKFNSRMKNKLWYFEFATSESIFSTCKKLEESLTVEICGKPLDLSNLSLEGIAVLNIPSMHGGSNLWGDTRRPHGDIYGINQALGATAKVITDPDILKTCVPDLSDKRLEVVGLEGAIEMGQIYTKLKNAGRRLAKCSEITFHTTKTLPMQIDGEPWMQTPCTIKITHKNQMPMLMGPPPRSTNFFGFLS
Procedure: as §1, §2, §3

IC50 [2]	IC50 [3]	SMILES	Emax [1]	EC50 [1]
–	–	CC(C)(C)c1cncc(-c2cc3c(cc2F)S(=O)(=O)C[C@H](N)C(=O)N3Cc2ccc(Cl)cc2)c1 [Example 2, (3R)-3-amino-7-(5-tert-butyl-3-pyridyl)-5-[(4-chlorophenyl)methyl]-8-fluoro-1,1-dioxo-2,3-dihydro-1λ6,5-benzothiazepin-4-one]	85%	78 nM
–	–	CC(C)(C)c1cnnc(-c2cc3c(cc2F)S(=O)(=O)C[C@H](N)C(=O)N3Cc2ccc(Cl)cc2)n1 [Example 11, (3R)-3-amino-7-(5-tert-butyl-1,2,4-triazin-3-yl)-5-[(4-chlorophenyl)methyl]-8-fluoro-1,1-dioxo-2,3-dihydro-1λ6,5-benzothiazepin-4-one]	118%	134 nM
310 nM	372 nM	CC(C)(C#N)c1cncc(-c2cc3c(cc2F)S(=O)(=O)C[C@H](N)C(=O)N3Cc2ccc(-c3noc(C(F)(F)F)n3)cc2)c1 [Example 23, 2-[5-[(3R)-3-amino-8-fluoro-1,1,4-triketo-5-[4-[5-(trifluoromethyl)-1,2,4-oxadiazol-3-yl]benzyl]-2,3-dihydro-1λ6,5-benzothiazepin-7-yl]-3-pyridyl]-2-methyl-propionitrile]	–	–
–	–	CC(C)(c1cncc(-c2cc3c(cc2F)S(=O)(=O)C[C@H](N)C(=O)N3Cc2ccc(-c3noc(C(F)(F)F)n3)cc2)c1)S(C)(=O)=O [Example 25, (3R)-3-amino-8-fluoro-1,1-diketo-7-[5-(1-mesyl-1-methyl-ethyl)-3-pyridyl]-5-[4-[5-(trifluoromethyl)-1,2,4-oxadiazol-3-yl]benzyl]-2,3-dihydro-1λ6,5-benzothiazepin-4-one]	86%	841 nM
–	–	COc1ccc(-c2ccc(CN3C(=O)[C@@H](N)CS(=O)(=O)c4cc(F)c(-c5cnc(C)c(C)c5)cc43)cc2)cc1 [Example 28, (3R)-3-amino-7-(5,6-dimethyl-3-pyridyl)-8-fluoro-5-[[4-(4-methoxyphenyl)phenyl]methyl]-1,1-dioxo-2,3-dihydro-1λ6,5-benzothiazepin-4-one]	89%	69 nM
